Laboratory results: patent US20250296960A1, “PEPTIDE COMPOSITIONS AND METHODS OF USE THEREOF” (priority 2022, published 2025)
Numbered stars: 1 amine (or outer) side, 2 acyl side, 3 side chain; on linkers, the order of the positions; unused ones are H or OH. Square brackets hold non-standard residues; d marks the D form. Side chains are listed from the residue outwards. Ends that are not written are not given here. Peptide text beside a SMILES is read from it. * marks the point of attachment. C18 = C18 fatty acid (C16-C22 fatty acids conjugated via γGlu/8-amino-3,6-dioxaoctanoic acid spacers); X1 = O=C(O)CCCCCCCCCCCCCCCCC(=O)N[C@@H](CCC(=O)NCCOCCOCC(=O)NCCOCCOCC(=O)NCCN1C(=O)CC(*)C1=O)C(=O)O; γGlu = O=C(O)[C@H](CCC(=O)[*:2])N[*:1]; AEEA = NCCOCCOCC(=O)O; Aib = CC(C)(N)C(=O)O

Columns and labels:
[1] = In vivo efficacy in mAMLN (NASH) mice, 2 weeks; details: for blood glucose, in words / body weight, in words: 20 nmol/kg s.c. Q2D, 2 weeks; for hepatic triglyceride content, in words / liver weight, in words / mRNA levels of TGF-β1 (inflammation marker) and ACTA2 (fibrosis marker), in words: end of treatment
[2] = Body weight loss in normal C57BL/6 mice, subcutaneous dosing; type: in vivo; details: for Weight loss (%): normal mice
human GCGR = target: T1, human GCGR (Homo sapiens, UniProt P47871); test: cAMP assay (HitHunter cAMP) in GCGR-expressing CHO-K1 cells (GCGR+ cells); type: cell-based
T1 construct: host or cells: CHO-K1
In short: (§1)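 CHO-K1 cells expressing each receptor were plated overnight, then treated with peptide in cAMP assay buffer for 30 min at 37 °C. cAMP was detected by antibody plus detection solution (1 h) and Solution A (3 h), both at room temperature in the dark. Luminescence was the read-out.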

human GIPR = target: T2, human GIPR (Homo sapiens, UniProt P48546); test: cAMP assay (HitHunter cAMP) in GIPR-expressing CHO-K1 cells (GIPR+ cells); type: cell-based
T2 construct: host or cells: CHO-K1
T2 sequence (P48546 22-466): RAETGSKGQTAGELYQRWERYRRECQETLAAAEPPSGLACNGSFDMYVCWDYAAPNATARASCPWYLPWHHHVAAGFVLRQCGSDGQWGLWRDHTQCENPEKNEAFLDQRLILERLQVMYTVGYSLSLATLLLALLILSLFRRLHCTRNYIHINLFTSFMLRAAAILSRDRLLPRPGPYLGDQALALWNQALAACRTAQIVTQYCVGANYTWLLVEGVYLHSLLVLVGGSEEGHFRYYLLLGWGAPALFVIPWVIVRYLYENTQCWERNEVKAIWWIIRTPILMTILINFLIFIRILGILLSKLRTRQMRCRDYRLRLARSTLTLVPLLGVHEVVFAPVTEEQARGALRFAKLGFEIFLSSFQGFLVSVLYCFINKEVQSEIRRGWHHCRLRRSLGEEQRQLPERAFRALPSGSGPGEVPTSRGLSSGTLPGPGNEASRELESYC
In short: as §1

human GLP-1R = target: T3, human GLP-1R (Homo sapiens, UniProt P43220); test: cAMP assay (HitHunter cAMP) in GLP-1R-expressing CHO-K1 cells (GLP-1R+ cells); type: cell-based
T3 construct: host or cells: CHO-K1
In short: as §1

[3] = 20 nmol/kg QD, Weight loss at 48 hr
[4] = Table 19, normalised to activity at GLP-1R
[5] = Table 24, ratio of EC50 of native ligand over peptide

T1 sequence (P47871 26-477): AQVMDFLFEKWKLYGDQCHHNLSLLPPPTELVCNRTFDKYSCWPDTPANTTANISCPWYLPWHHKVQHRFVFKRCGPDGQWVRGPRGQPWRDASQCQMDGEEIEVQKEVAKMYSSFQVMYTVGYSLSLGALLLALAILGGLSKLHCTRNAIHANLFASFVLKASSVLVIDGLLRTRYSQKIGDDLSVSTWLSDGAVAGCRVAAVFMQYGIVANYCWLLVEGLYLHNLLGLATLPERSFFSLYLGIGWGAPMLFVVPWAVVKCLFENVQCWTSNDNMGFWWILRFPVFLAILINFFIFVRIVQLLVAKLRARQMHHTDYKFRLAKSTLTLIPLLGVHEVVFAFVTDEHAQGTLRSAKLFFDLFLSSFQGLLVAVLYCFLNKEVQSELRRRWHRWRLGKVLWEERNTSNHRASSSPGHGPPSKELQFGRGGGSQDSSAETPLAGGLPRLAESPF
T3 sequence (P43220 24-463): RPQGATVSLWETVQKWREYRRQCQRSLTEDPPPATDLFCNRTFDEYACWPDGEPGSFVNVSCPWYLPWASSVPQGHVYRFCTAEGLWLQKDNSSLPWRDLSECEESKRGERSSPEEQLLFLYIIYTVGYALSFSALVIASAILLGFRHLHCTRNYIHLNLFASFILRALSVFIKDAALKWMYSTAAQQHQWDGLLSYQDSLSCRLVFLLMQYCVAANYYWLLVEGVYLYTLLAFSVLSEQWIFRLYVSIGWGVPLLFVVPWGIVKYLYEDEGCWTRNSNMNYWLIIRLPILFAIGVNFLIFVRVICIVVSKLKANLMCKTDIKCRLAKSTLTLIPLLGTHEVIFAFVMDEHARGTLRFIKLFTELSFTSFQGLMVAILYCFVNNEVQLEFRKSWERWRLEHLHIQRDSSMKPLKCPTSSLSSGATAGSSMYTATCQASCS

Row | Compound | blood glucose, in words [1] | body weight, in words [1] | hepatic triglyceride content, in words [1] | liver weight, in words [1] | mRNA levels of TGF-β1 (inflammation marker) and ACTA2 (fibrosis marker), in words [1] | Weight loss (%) [2, 3] [%] | other results
1 | YAibQGT FTSDY SK*YLD YMMQRDFVQWLIEGGPSSGAPPPS (Y[Aib]QGTFTSDYSK([AEEA-AEEA-γGlu-C18])YLDYMMQRDFVQWLIEGGPSSGAPPPS-NH2) [5-2D, K* = lysine lipidated with 2OEG-γGlu-C18] | reduce blood glucose | reduce body weight | reduce hepatic triglyceride content | reduce liver weight | reduce both TGF-β1 and ACTA2 | 16.6 ± 0.9 | –
2 | HAibQGT FTSDY SK*YLD YMMARDFVQWLIEGGPSSGAPPPS (H[Aib]QGTFTSDYSK([AEEA-AEEA-γGlu-C18])YLDYMMARDFVQWLIEGGPSSGAPPPS-NH2) [5D, K* = lysine lipidated with 2OEG-γGlu-C18] | reduce blood glucose | reduce body weight | reduce hepatic triglyceride content | reduce liver weight | reduce both TGF-β1 and ACTA2 | 19.4 ± 2.2 | –
3 | YAibQGT FTSDY SK*LLD YMMQRDFVQWLLEGGPSSGAPPPS (Y[Aib]QGTFTSDYSK([AEEA-AEEA-γGlu-C18])LLDYMMQRDFVQWLLEGGPSSGAPPPS-NH2) [5-3D, K* = lysine lipidated with 2OEG-γGlu-C18] | reduce blood glucose | reduce body weight | reduce hepatic triglyceride content | reduce liver weight | reduce both TGF-β1 and ACTA2 | 7.6 ± 1.3 | –
4 | CC[C@H](C)[C@H](NC(=O)[C@H](CC(C)C)NC(=O)[C@H](Cc1c[nH]c2ccccc12)NC(=O)[C@H](CCC(N)=O)NC(=O)[C@@H](NC(=O)[C@H](Cc1ccccc1)NC(=O)[C@H](CC(=O)O)NC(=O)[C@H](CCCNC(=N)N)NC(=O)[C@H](C)NC(=O)[C@H](CCSC)NC(=O)[C@H](CCSC)NC(=O)[C@H](Cc1ccc(O)cc1)NC(=O)[C@H](CC(=O)O)NC(=O)[C@H](CC(C)C)NC(=O)[C@H](Cc1ccc(O)cc1)NC(=O)[C@H](CCCCN)NC(=O)[C@H](CO)NC(=O)[C@H](Cc1ccc(O)cc1)NC(=O)[C@H](CC(=O)O)NC(=O)[C@H](CO)NC(=O)[C@@H](NC(=O)[C@H](Cc1ccccc1)NC(=O)[C@@H](NC(=O)CNC(=O)[C@H](CCC(N)=O)NC(=O)C(C)(C)NC(=O)[C@@H](N)Cc1ccc(O)cc1)[C@@H](C)O)[C@@H](C)O)C(C)C)C(=O)N[C@@H](CCC(=O)O)C(=O)NCC(=O)NCC(=O)N1CCC[C@H]1C(=O)N[C@@H](CO)C(=O)N[C@@H](CO)C(=O)NCC(=O)N[C@@H](C)C(=O)N1CCC[C@H]1C(=O)N1CCC[C@H]1C(=O)N1CCC[C@H]1C(=O)N[C@@H](CO)C(=O)N[C@@H](CSC1CC(=O)N(CCNC(=O)COCCOCCNC(=O)COCCOCCNC(=O)CC[C@H](NC(=O)CCCCCCCCCCCCCCCCC(=O)O)C(=O)O)C1=O)C(N)=O (some centres unmarked) [5-1A] (H-Y[Aib]QGTFTSDYSKYLDYMMARDFVQWLIEGGPSSGAPPPSC(X1)-NH2; N-terminus assumed) | reduce blood glucose | reduce body weight | reduce hepatic triglyceride content | reduce liver weight | reduce both TGF-β1 and ACTA2 | – | Activity relative to STD peptide (%), GCGR (human GCGR; Table 18): 24%; Activity relative to GLP-1 (%), GCGR (human GCGR; [4]): 13%; Relative % to native ligand, GCGR (human GCGR; [5]): 24%; Ratio vs. GLP-1R, GCGR (human GCGR; Table 25): 13; Relative % to non-lipidated peptide, GCGR (human GCGR; Table 26): 0%; Activity relative to STD peptide (%), GIPR (human GIPR; Table 18): 1%; Activity relative to GLP-1 (%), GIPR (human GIPR; [4]): 1%; Relative % to native ligand, GIPR (human GIPR; [5]): 1%; Ratio vs. GLP-1R, GIPR (human GIPR; Table 25): 1; Relative % to non-lipidated peptide, GIPR (human GIPR; Table 26): 11%; Activity relative to STD peptide (%), GLP-1R (human GLP-1R; Table 18): 187%; Activity relative to GLP-1 (%), GLP-1R (human GLP-1R; [4]): 100%; Relative % to native ligand, GLP-1R (human GLP-1R; [5]): 187%; Ratio vs. GLP-1R, GLP-1R (human GLP-1R; Table 25): 100; Relative % to non-lipidated peptide, GLP-1R (human GLP-1R; Table 26): 159%; body weight loss effect, in words ([2]; Example 5, 20 nmol/kg s.c. QD, 4 days): Superior body weight loss effects; Weight loss (%) ([2]; 10 nmol/kg QD, after 48 or 72 hours): 20.0 ± 2.1%; Weight loss (%) ([2]; 20 nmol/kg QD, after 48 or 72 hours): 18.9 ± 2.0%
